The assay concerns MV-4-11 cells. The assay is described as follows: Gene expression microarray analysis (Affymetrix PrimeView) and GSEA. The format is cell-based, human. Further details: RFU PODN (11730768_x_at) / Fold change /veh PODN (11730768_x_at) / RFU LINC00158 (11744669_a_at) / Fold change /veh LINC00158 (11744669_a_at) / RFU DUSP10 (11751237_a_at) / Fold change /veh DUSP10 (11751237_a_at) / RFU ID3 (11757404_x_at) / Fold change /veh ID3 (11757404_x_at) / RFU PLEKHG5 (11737974_s_at) / Fold change /veh PLEKHG5 (11737974_s_at) / RFU LRRC4B (11730491_at) / Fold change /veh LRRC4B (11730491_at) / RFU GIMAP4 (11747438_a_at) / Fold change /veh GIMAP4 (11747438_a_at) / RFU KRT8 (11758183_x_at) / Fold change /veh KRT8 (11758183_x_at) / RFU CNN1 (11734310_a_at) / Fold change /veh CNN1 (11734310_a_at) / RFU VPS37D (11726825_at) / Fold change /veh VPS37D (11726825_at) / RFU C10orf10 (11716522_x_at) / Fold change /veh C10orf10 (11716522_x_at) / RFU KIR2DL2 /// KIR2DL4 /// KIR2DL5A /// KIR2DL5B /// KIR2DS1 /// KIR2DS2 /// KIR2DS3 /// KIR2DS4 /// KIR3DL3 /// KIR3DL3 /// KIR3DS1 (11738374_at) / Fold change /veh KIR2DL2 /// KIR2DL4 /// KIR2DL5A /// KIR2DL5B /// KIR2DS1 /// KIR2DS2 /// KIR2DS3 /// KIR2DS4 /// KIR3DL3 /// KIR3DL3 /// KIR3DS1 (11738374_at) / RFU C1QL1 (11718748_at) / Fold change /veh C1QL1 (11718748_at) / RFU TMPRSS4 (11747572_a_at) / Fold change /veh TMPRSS4 (11747572_a_at) / RFU HAMP (11756126_x_at) / Fold change /veh HAMP (11756126_x_at) / RFU RNFT2 (11725882_a_at) / Fold change /veh RNFT2 (11725882_a_at) / RFU NR4A2 (11747474_a_at) / Fold change /veh NR4A2 (11747474_a_at) / RFU ABCC12 (11746883_a_at) / Fold change /veh ABCC12 (11746883_a_at) / RFU TMEM136 (11760407_x_at) / Fold change /veh TMEM136 (11760407_x_at) / RFU CLDN22 /// WWC2 (11732394_at) / Fold change /veh CLDN22 /// WWC2 (11732394_at) / RFU HLA-DPB1 (11760878_x_at) / Fold change /veh HLA-DPB1 (11760878_x_at) / RFU SPINT1 (11716480_a_at) / Fold change /veh SPINT1 (11716480_a_at) / RFU GAP43 (11754022_s_at) / Fold change /veh GAP43 (11754022_s_at) / RFU A4GNT (11735810_at) / Fold change /veh A4GNT (11735810_at) / RFU PRB3 (11715151_x_at) / Fold change /veh PRB3 (11715151_x_at) / RFU TUBB4B (11761932_at) / Fold change /veh TUBB4B (11761932_at) / RFU CAPN14 (11732068_a_at) / Fold change /veh CAPN14 (11732068_a_at) / RFU TMCC2 (11721928_a_at) / Fold change /veh TMCC2 (11721928_a_at) / RFU IRGQ (11745062_a_at) / Fold change /veh IRGQ (11745062_a_at) / RFU FAM174B (11720279_a_at) / Fold change /veh FAM174B (11720279_a_at) / RFU TMPRSS4 (11748680_a_at) / Fold change /veh TMPRSS4 (11748680_a_at) / RFU FAM212B (11763350_a_at) / Fold change /veh FAM212B (11763350_a_at) / RFU PLEKHG5 (11743358_a_at) / Fold change /veh PLEKHG5 (11743358_a_at) / RFU ZSCAN30 (11745921_a_at) / Fold change /veh ZSCAN30 (11745921_a_at) / RFU CMKLR1 (11741424_a_at) / Fold change /veh CMKLR1 (11741424_a_at) / RFU LOC101060620 /// MAPK8IP1 (11723275_at) / Fold change /veh LOC101060620 /// MAPK8IP1 (11723275_at) / RFU SPTSSB (11747773_x_at) / Fold change /veh SPTSSB (11747773_x_at) / RFU PRSS12 (11739890_at) / Fold change /veh PRSS12 (11739890_at) / RFU BIN1 (11741810_x_at) / Fold change /veh BIN1 (11741810_x_at) / RFU WNT11 (11732464_a_at) / Fold change /veh WNT11 (11732464_a_at) / RFU C10orf10 (11716521_a_at) / Fold change /veh C10orf10 (11716521_a_at) / RFU C5orf56 (11738089_at) / Fold change /veh C5orf56 (11738089_at) / RFU CYB561 (11721691_x_at) / Fold change /veh CYB561 (11721691_x_at) / RFU ANKRD19P (11752326_a_at) / Fold change /veh ANKRD19P (11752326_a_at) / RFU OR2T12 /// OR2T33 /// OR2T8 (11738714_s_at) / Fold change /veh OR2T12 /// OR2T33 /// OR2T8 (11738714_s_at) / RFU VCAN (11748164_a_at) / Fold change /veh VCAN (11748164_a_at) / RFU JSRP1 (11732532_at) / Fold change /veh JSRP1 (11732532_at) / RFU KRTAP10-11 (11738290_x_at) / Fold change /veh KRTAP10-11 (11738290_x_at) / RFU MYO3A (11730013_a_at) / Fold change /veh MYO3A (11730013_a_at) / RFU EBF3 (11725865_a_at) / Fold change /veh EBF3 (11725865_a_at) / RFU CAMK2N1 (11719241_x_at) / Fold change /veh CAMK2N1 (11719241_x_at) / RFU C5orf56 (11738088_a_at) / Fold change /veh C5orf56 (11738088_a_at) / RFU OLFML3 (11715873_a_at) / Fold change /veh OLFML3 (11715873_a_at) / RFU LOC100653217 /// NTM (11731650_a_at) / Fold change /veh LOC100653217 /// NTM (11731650_a_at) / RFU MAPK11 (11762145_a_at) / Fold change /veh MAPK11 (11762145_a_at) / RFU FIZ1 (11724087_x_at) / Fold change /veh FIZ1 (11724087_x_at) / RFU OASL (11726364_x_at) / Fold change /veh OASL (11726364_x_at) / RFU SOX15 (11748057_x_at) / Fold change /veh SOX15 (11748057_x_at) / RFU CD79A (11719716_a_at) / Fold change /veh CD79A (11719716_a_at) / RFU HIST1H1D (11736915_at) / Fold change /veh HIST1H1D (11736915_at) / RFU CASKIN2 (11723855_a_at) / Fold change /veh CASKIN2 (11723855_a_at) / RFU LOC730098 (11760151_x_at) / Fold change /veh LOC730098 (11760151_x_at) / RFU OR4N2 (11742367_at) / Fold change /veh OR4N2 (11742367_at) / RFU PRRT2 (11749266_a_at) / Fold change /veh PRRT2 (11749266_a_at) / RFU SNX32 (11753110_a_at) / Fold change /veh SNX32 (11753110_a_at) / RFU CDHR5 (11726645_a_at) / Fold change /veh CDHR5 (11726645_a_at) / RFU RCAN1 (11760418_a_at) / Fold change /veh RCAN1 (11760418_a_at) / RFU FAM167A (11723789_a_at) / Fold change /veh FAM167A (11723789_a_at) / RFU FAM26E (11764081_at) / Fold change /veh FAM26E (11764081_at) / RFU ISYNA1 (11749810_s_at) / Fold change /veh ISYNA1 (11749810_s_at) / RFU ACY1 (11761880_at) / Fold change /veh ACY1 (11761880_at) / RFU 11764098_at / Fold change /veh 11764098_at / RFU SAMD14 (11745864_x_at) / Fold change /veh SAMD14 (11745864_x_at) / RFU NPB (11741838_a_at) / Fold change /veh NPB (11741838_a_at) / RFU TMPRSS6 (11731388_a_at) / Fold change /veh TMPRSS6 (11731388_a_at) / RFU KRTAP10-2 (11738614_at) / Fold change /veh KRTAP10-2 (11738614_at) / RFU ARHGAP8 /// PRR5-ARHGAP8 (11727945_x_at) / Fold change /veh ARHGAP8 /// PRR5-ARHGAP8 (11727945_x_at) / RFU KRTAP5-7 /// NADSYN1 (11734609_at) / Fold change /veh KRTAP5-7 /// NADSYN1 (11734609_at) / RFU RASL12 (11751679_a_at) / Fold change /veh RASL12 (11751679_a_at) / RFU CDKN2B (11736163_a_at) / Fold change /veh CDKN2B (11736163_a_at) / RFU PRF1 (11729649_at) / Fold change /veh PRF1 (11729649_at) / RFU, ZNF638 /// ZNF638-IT1 / Fold change vs veh, ZNF638 /// ZNF638-IT1 / RFU, PANK3 / Fold change vs veh, PANK3 / RFU, SH3YL1 / Fold change vs veh, SH3YL1 / RFU, ZEB2 / Fold change vs veh, ZEB2 / RFU, NRIP1 / Fold change vs veh, NRIP1 / RFU, PTTG1IP / Fold change vs veh, PTTG1IP / RFU, CAPN2 / Fold change vs veh, CAPN2 / RFU, MED14 / Fold change vs veh, MED14 / RFU, SNORA58 / Fold change vs veh, SNORA58 / RFU, C1orf63 / Fold change vs veh, C1orf63 / RFU, LRRFIP1 / Fold change vs veh, LRRFIP1 / RFU, NDUFAF7 / Fold change vs veh, NDUFAF7 / RFU, SLC12A2 / Fold change vs veh, SLC12A2 / RFU, IBTK / Fold change vs veh, IBTK / RFU, ESF1 / Fold change vs veh, ESF1 / Fold change vs veh, TMEM50B / RFU, TAOK1 / Fold change vs veh, TAOK1 / RFU, ACBD3 / Fold change vs veh, ACBD3 / RFU, TMA16 / Fold change vs veh, TMA16 / RFU, RWDD3 / Fold change vs veh, RWDD3 / RFU, BCAT1 / Fold change vs veh, BCAT1 / RFU, EDEM3 / Fold change vs veh, EDEM3 / RFU, TMEM33 / Fold change vs veh, TMEM33 / RFU, WDR75 / Fold change vs veh, WDR75 / RFU, AHCTF1 / Fold change vs veh, AHCTF1 / RFU, TFRC / Fold change vs veh, TFRC / RFU, ZDHHC17 / Fold change vs veh, ZDHHC17 / RFU, NOM1 / Fold change vs veh, NOM1 / RFU, ARL8B / Fold change vs veh, ARL8B / RFU, ZBTB11 / Fold change vs veh, ZBTB11 / RFU, TAMM41 / Fold change vs veh, TAMM41 / RFU, KIAA1704 /// LOC100996395 / Fold change vs veh, KIAA1704 /// LOC100996395 / RFU, ING1 / Fold change vs veh, ING1 / RFU, TRMT61B / Fold change vs veh, TRMT61B / RFU, FUBP3 / Fold change vs veh, FUBP3 / RFU, TP53 / Fold change vs veh, TP53 / RFU, TNKS2 / Fold change vs veh, TNKS2 / RFU, ZFP14 / Fold change vs veh, ZFP14 / RFU, ACTR2 / Fold change vs veh, ACTR2 / RFU, PPP3R1 / Fold change vs veh, PPP3R1 / RFU, PIK3R1 / Fold change vs veh, PIK3R1 / RFU, HNRNPA1 / Fold change vs veh, HNRNPA1 / RFU, RNF170 / Fold change vs veh, RNF170 / RFU, ZNF28 / Fold change vs veh, ZNF28 / RFU, RNGTT / Fold change vs veh, RNGTT / RFU, OGT / Fold change vs veh, OGT / RFU, BRD1 / Fold change vs veh, BRD1 / RFU, MARS / Fold change vs veh, MARS / RFU, ZNF655 / Fold change vs veh, ZNF655 / RFU, FAHD1 / Fold change vs veh, FAHD1 / RFU, BDP1 / Fold change vs veh, BDP1 / RFU, LRRCC1 / Fold change vs veh, LRRCC1 / RFU, ARID1A / Fold change vs veh, ARID1A / RFU, ZNF146 / Fold change vs veh, ZNF146 / RFU, ZNF330 / Fold change vs veh, ZNF330 / RFU, GPN3 / Fold change vs veh, GPN3 / RFU, C9orf123 / Fold change vs veh, C9orf123 / RFU, N4BP2L2 / Fold change vs veh, N4BP2L2 / RFU, ARFIP1 / Fold change vs veh, ARFIP1 / RFU, FAM179B / Fold change vs veh, FAM179B / RFU, BCL10 / Fold change vs veh, BCL10 / RFU, UHRF1BP1L / Fold change vs veh, UHRF1BP1L / RFU, BET1 / Fold change vs veh, BET1 / RFU, CNOT2 / Fold change vs veh, CNOT2 / RFU, ZNF268 / Fold change vs veh, ZNF268 / Fold change vs veh, ZNF507 / RFU, DGCR2 / Fold change vs veh, DGCR2 / RFU, WDSUB1 / Fold change vs veh, WDSUB1 / Fold change vs veh, HSP90B1 /// MIR3652 / RFU, ADSS / Fold change vs veh, ADSS / RFU, GK / Fold change vs veh, GK / RFU, ZNF148 / Fold change vs veh, ZNF148 / RFU, TAF9 / Fold change vs veh, TAF9 / RFU, SLC1A5 / Fold change vs veh, SLC1A5 / RFU, SLMO2 / Fold change vs veh, SLMO2 / RFU, ABCC4 / Fold change vs veh, ABCC4 / RFU, LOC101060439 /// RAP1B / Fold change vs veh, LOC101060439 /// RAP1B / RFU, RFX7 / Fold change vs veh, RFX7 / RFU, GTPBP10 / Fold change vs veh, GTPBP10 / RFU, CNEP1R1 / Fold change vs veh, CNEP1R1 / RFU, BIVM-ERCC5 /// ERCC5 / Fold change vs veh, BIVM-ERCC5 /// ERCC5 / RFU, ILF3 / Fold change vs veh, ILF3 / RFU 11762660_at / Fold change /veh 11762660_at / RFU VCAN (11757783_s_at) / Fold change /veh VCAN (11757783_s_at) / RFU DDX43 (11728927_at) / Fold change /veh DDX43 (11728927_at) / RFU KRT8 (11758188_x_at) / Fold change /veh KRT8 (11758188_x_at) / RFU NKD1 (11759106_at) / Fold change /veh NKD1 (11759106_at) / RFU SRD5A1 (11742802_a_at) / Fold change /veh SRD5A1 (11742802_a_at) / RFU TPSAB1 /// TPSB2 (11721975_s_at) / Fold change /veh TPSAB1 /// TPSB2 (11721975_s_at) / RFU GSTM3 (11746129_a_at) / Fold change /veh GSTM3 (11746129_a_at) / RFU IL23R (11737362_x_at) / Fold change /veh IL23R (11737362_x_at) / RFU TMEM51 (11727254_a_at) / Fold change /veh TMEM51 (11727254_a_at) / RFU PIWIL2 (11732686_x_at) / Fold change /veh PIWIL2 (11732686_x_at) / RFU ORM1 (11744905_x_at) / Fold change /veh ORM1 (11744905_x_at) / RFU CCDC152 (11743942_at) / Fold change /veh CCDC152 (11743942_at) / RFU ECM1 (11717891_a_at) / Fold change /veh ECM1 (11717891_a_at) / RFU IL23R (11748794_a_at) / Fold change /veh IL23R (11748794_a_at) / RFU TNFAIP8L3 (11732012_x_at) / Fold change /veh TNFAIP8L3 (11732012_x_at) / RFU MBOAT4 (11741988_at) / Fold change /veh MBOAT4 (11741988_at) / RFU 11764193_at / Fold change /veh 11764193_at / RFU TMEM53 (11763286_at) / Fold change /veh TMEM53 (11763286_at) / RFU MAGEB2 (11727129_at) / Fold change /veh MAGEB2 (11727129_at) / RFU TMEM200A (11744735_a_at) / Fold change /veh TMEM200A (11744735_a_at) / RFU CCDC152 (11751479_a_at) / Fold change /veh CCDC152 (11751479_a_at) / RFU FAM211A (11726209_a_at) / Fold change /veh FAM211A (11726209_a_at) / RFU RGS16 (11746705_a_at) / Fold change /veh RGS16 (11746705_a_at) / RFU VCAN (11755009_s_at) / Fold change /veh VCAN (11755009_s_at) / RFU RHOB (11743442_s_at) / Fold change /veh RHOB (11743442_s_at) / RFU RGS16 (11720943_a_at) / Fold change /veh RGS16 (11720943_a_at) / RFU RGS16 (11720944_at) / Fold change /veh RGS16 (11720944_at) / RFU, VPS4B / Fold change vs veh, VPS4B / RFU, CREB1 / Fold change vs veh, CREB1 / RFU, DNAJC13 / Fold change vs veh, DNAJC13 / RFU, GNAQ / Fold change vs veh, GNAQ / RFU, CDK5R1 / Fold change vs veh, CDK5R1 / RFU, ZRANB3 / Fold change vs veh, ZRANB3 / RFU, CUL4A / Fold change vs veh, CUL4A / RFU, CCNY / Fold change vs veh, CCNY / RFU, UFL1 / Fold change vs veh, UFL1 / RFU, COG3 / Fold change vs veh, COG3 / RFU, DIAPH2 / Fold change vs veh, DIAPH2 / RFU, SKA2 / Fold change vs veh, SKA2 / RFU, AFF3 / Fold change vs veh, AFF3 / RFU, LMF1 / Fold change vs veh, LMF1 / RFU, IPO11 / Fold change vs veh, IPO11 / RFU, DFFB / Fold change vs veh, DFFB / RFU, FOXP1 / Fold change vs veh, FOXP1 / RFU, CARD8 / Fold change vs veh, CARD8 / RFU, STRN3 / Fold change vs veh, STRN3 / RFU, ADK / Fold change vs veh, ADK / RFU, RASSF2 / Fold change vs veh, RASSF2 / RFU, WIPF1 / Fold change vs veh, WIPF1 / RFU, LARP1B / Fold change vs veh, LARP1B / RFU, RASA1 / Fold change vs veh, RASA1 / RFU, RB1 / Fold change vs veh, RB1 / RFU, PPFIA1 / Fold change vs veh, PPFIA1 / RFU, MAT2A / Fold change vs veh, MAT2A / RFU, CCT5 / Fold change vs veh, CCT5 / RFU, WDR92 / Fold change vs veh, WDR92 / RFU, CUX1 / Fold change vs veh, CUX1 / RFU, TTC7A / Fold change vs veh, TTC7A / RFU, TMEM135 / Fold change vs veh, TMEM135 / RFU, DEPTOR / Fold change vs veh, DEPTOR / RFU, CPM / Fold change vs veh, CPM / RFU, DNAJB6 / Fold change vs veh, DNAJB6 / RFU, CACNA2D3 / Fold change vs veh, CACNA2D3 / RFU, DTX4 / Fold change vs veh, DTX4 / RFU, TFCP2 / Fold change vs veh, TFCP2 / RFU, GMCL1 /// GMCL1P1 / Fold change vs veh, GMCL1 /// GMCL1P1 / RFU, AEBP2 / Fold change vs veh, AEBP2 / RFU, SNHG1 /// SNORD22 /// SNORD25 /// SNORD26 /// SNORD27 /// SNORD28 /// SNORD29 /// SNORD31 / Fold change vs veh, SNHG1 /// SNORD22 /// SNORD25 /// SNORD26 /// SNORD27 /// SNORD28 /// SNORD29 /// SNORD31 / Fold change (Aza/veh), C12orf56 (ProbeSet 11735607_a_at) / Fold change (ACY-1035/veh), C12orf56 (ProbeSet 11735607_a_at) / Fold change (Aza/veh), FGFR1OP (ProbeSet 11751329_s_at) / Fold change (ACY-1035/veh), FGFR1OP (ProbeSet 11751329_s_at) / Fold change (Aza/veh), VPS36 (ProbeSet 11739960_a_at) / Fold change (ACY-1035/veh), VPS36 (ProbeSet 11739960_a_at) / RFU SYPL1 (11715823_x_at) / Fold change /veh SYPL1 (11715823_x_at) / RFU IGFBP7 (11715501_s_at) / Fold change /veh IGFBP7 (11715501_s_at) / RFU REEP3 (11722064_at) / Fold change /veh REEP3 (11722064_at) / RFU IGLL1 (11728026_x_at) / Fold change /veh IGLL1 (11728026_x_at): dose or concentration left out as unconfirmed. The conditions noted are these: MV-4-11 cells, 48 hours.

`Nc1ccc(-c2cccs2)cc1NC(=O)c1ccc2c(c1)cc(C1CC1)n2CCN1CCOCC1` [ACY-1035]: the “Fold change /veh VPS37D (11726825_at)” value is 1.08.

The values are drawn from PMC5218480 (PLoS ONE, 2017).
